Measured values published in patent publication US12662451B2, “Chemical compounds and uses thereof” (GLAXOSMITHKLINE INTELLECTUAL PROPERTY (NO.4) LIMITED, priority 2023, dated 2026).

What was measured:
[1] = target: T1, recombinant full-length WRN protein (1-1432) (Homo sapiens, UniProt Q14191); assay: WRN unwinding activity, fluorogenic 384-well assay (Example A); format: biochemical; details: WRN unwinding activity, 4 hr; Table 2; read-out: 4 hr UNW pIC50 (converted)
T1 construct: recombinant full-length WRN protein (1-1432)
Summary of the method: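 200 pM enzyme (2× stock) preincubated with compound 4 h at ambient temperature, then 200 μM ATP and 12 nM quenched TAMRA-labelled dsDNA (2× stocks) added for 60 min; EDTA-quenched. Buffer 25 mM Tris pH 8.0, 5 mM NaCl, 2 mM MgCl2. Fluorescence at 525/598 nm; pIC50 from four-parameter fit.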

[2] = system: SW48 human colorectal cancer cells (MSI-H cancer cells); assay: SW48 cell viability, CellTiter-Glo, 120 hours (Example B); details: Homo sapiens, SW48, 120 h, read-out: SW48 pCC50, SW48 cell viability, 120 hours incubation (converted); Table 2

T1 sequence (Q14191 whole entry): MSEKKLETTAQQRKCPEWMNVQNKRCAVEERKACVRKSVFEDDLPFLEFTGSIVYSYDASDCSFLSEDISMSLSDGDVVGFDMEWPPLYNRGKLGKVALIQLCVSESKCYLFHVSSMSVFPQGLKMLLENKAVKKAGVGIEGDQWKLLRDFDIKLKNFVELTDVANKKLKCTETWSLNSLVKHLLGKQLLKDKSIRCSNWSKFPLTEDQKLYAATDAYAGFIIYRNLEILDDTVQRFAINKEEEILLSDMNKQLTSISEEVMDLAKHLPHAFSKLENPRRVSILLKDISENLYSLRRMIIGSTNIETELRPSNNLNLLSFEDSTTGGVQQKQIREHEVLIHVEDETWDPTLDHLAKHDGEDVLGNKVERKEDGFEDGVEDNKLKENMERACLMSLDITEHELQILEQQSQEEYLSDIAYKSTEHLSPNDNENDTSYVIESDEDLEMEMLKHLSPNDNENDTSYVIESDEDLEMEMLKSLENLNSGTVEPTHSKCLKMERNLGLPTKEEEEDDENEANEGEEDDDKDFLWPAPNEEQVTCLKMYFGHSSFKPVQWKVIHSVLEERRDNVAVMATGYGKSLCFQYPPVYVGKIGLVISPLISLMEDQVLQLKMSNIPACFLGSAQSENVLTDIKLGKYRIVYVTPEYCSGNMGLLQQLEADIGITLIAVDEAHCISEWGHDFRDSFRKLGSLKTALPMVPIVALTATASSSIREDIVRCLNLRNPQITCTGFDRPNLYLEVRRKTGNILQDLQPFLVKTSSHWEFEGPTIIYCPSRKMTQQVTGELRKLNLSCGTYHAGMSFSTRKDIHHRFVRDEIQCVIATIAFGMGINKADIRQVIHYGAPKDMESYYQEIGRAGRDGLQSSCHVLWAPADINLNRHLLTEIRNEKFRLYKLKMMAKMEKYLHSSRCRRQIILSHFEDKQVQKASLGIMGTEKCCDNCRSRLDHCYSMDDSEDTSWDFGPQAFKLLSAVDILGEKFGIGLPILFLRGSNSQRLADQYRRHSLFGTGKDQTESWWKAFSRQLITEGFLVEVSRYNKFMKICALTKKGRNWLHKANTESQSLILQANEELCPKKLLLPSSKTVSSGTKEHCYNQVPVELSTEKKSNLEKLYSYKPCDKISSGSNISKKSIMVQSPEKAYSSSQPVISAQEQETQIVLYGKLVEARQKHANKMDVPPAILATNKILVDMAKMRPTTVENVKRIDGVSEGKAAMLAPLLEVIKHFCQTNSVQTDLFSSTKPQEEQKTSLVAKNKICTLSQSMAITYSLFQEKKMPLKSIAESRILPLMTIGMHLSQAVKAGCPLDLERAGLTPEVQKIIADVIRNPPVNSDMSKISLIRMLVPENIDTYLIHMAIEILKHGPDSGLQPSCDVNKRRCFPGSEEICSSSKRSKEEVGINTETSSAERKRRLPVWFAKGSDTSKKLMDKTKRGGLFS

| Compound | IC50 [1] [nM] | CC50 [2] [nM] |
| --- | --- | --- |
| Cc1nc2cc(S(=O)(=O)N(C)c3ccc([C@@H]4CCC[C@H](C(=O)Nc5ccc(C(F)(F)F)cc5F)[C@H]4C(=O)O)cc3C#N)ccc2n1C (single isomer, unassigned) [Example 162] | 2 | 3160 |
| O=C(O)[C@@H]1[C@@H](c2ccc(-c3ccc(F)nc3)cc2)CCC[C@H]1C(=O)Nc1ccc(C(F)(F)F)cc1F [Example 25, (1R,2R,6S)-2-((2-fluoro-4-(trifluoromethyl)phenyl)carbamoyl)-6-(4-(6-fluoropyridin-3-yl)phenyl)cyclohexane-1-carboxylic acid] | 1.58 | 5010 |
| Cc1nc2cc(S(=O)(=O)N(C)c3ccc([C@H]4CCC[C@@H](C(=O)Nc5ccc(C(C)C)cc5)[C@@H]4C(=O)O)cc3)ccc2n1C (single isomer, unassigned) [Example 80] | 1.58 | 501 |
| COc1cc(S(=O)(=O)N(C)c2ccc([C@H]3CCC[C@@H](C(=O)Nc4ccc(C(F)(F)F)cc4F)[C@@H]3C(=O)O)cc2)ccc1Br [Example 136, (1R,2S,6R)-2-(4-((4-bromo-3-methoxy-N-methylphenyl)sulfonamido)phenyl)-6-((2-fluoro-4-(trifluoromethyl)phenyl)carbamoyl)cyclohexane-1-carboxylic acid] | 39.8 | 3160 |
| O=C(O)[C@@H]1[C@@H](c2ccc(-c3cccs3)cc2)CCC[C@H]1C(=O)Nc1ccc(C(F)(F)F)cc1F [Example 31, (1R,2R,6S)-2-((2-fluoro-4-(trifluoromethyl)phenyl)carbamoyl)-6-(4-(thiophen-2-yl)phenyl)cyclohexane-1-carboxylic acid] | 100 | 10000 |
| Cc1nc2cc(S(=O)(=O)N(C)c3ccc([C@H]4CCC[C@H](C(=O)Nc5ccc(C(C)C)cc5)[C@@H]4C(=O)O)cc3)ccc2n1C (single isomer, unassigned) [Example 73] | 1.26 | 3980 |
| Cc1cc(C)c(S(=O)(=O)N(C)c2ccc([C@H]3CCC[C@@H](C(=O)Nc4ccc(C(F)(F)F)cc4F)[C@@H]3C(=O)O)cc2)c(C)c1 [Example 103, (1R,2R,6S)-2-((2-fluoro-4-(trifluoromethyl)phenyl)carbamoyl)-6-(4-((N,2,4,6-tetramethylphenyl)sulfonamido)phenyl)cyclohexane-1-carboxylic acid] | 1.58 | 12600 |
| Cc1nc2cc(S(=O)(=O)N(C)c3ccc([C@H]4C[C@@H](O)C[C@@H](C(=O)Nc5ccc(C(F)(F)F)cc5F)[C@@H]4C(=O)O)cc3)ccc2n1C (single isomer, unassigned) [Example 145] | 1.58 | 1260 |
| O=C(O)[C@@H]1[C@@H](c2ccc(-c3cnoc3)cc2)CCC[C@H]1C(=O)Nc1ccc(C(F)(F)F)cc1F [Example 48, (1R,2R,6S)-2-((2-fluoro-4-(trifluoromethyl)phenyl)carbamoyl)-6-(4-(isoxazol-4-yl)phenyl)cyclohexane-1-carboxylic acid] | 15.8 | 5010 |

Second part, led by results:

| IC50 [1] [nM] | Compound | CC50 [2] [nM] |
| --- | --- | --- |
| 3.16 | Cc1nc2cc(S(=O)(=O)N(C)c3ccc([C@H]4CCC[C@@H](C(=O)Nc5ccc(C6CCC6)cc5F)[C@@H]4C(=O)O)cc3)ccc2n1C [Example 175, (1R,2R,6S)-2-((4-cyclobutyl-2-fluorophenyl)carbamoyl)-6-(4-((N,1,2-trimethyl-1H-benzo[d]imidazole)-5-sulfonamido)phenyl) cyclohexane-1-carboxylic acid] | 1580 |
| 20 | Cc1nc2cc(S(=O)(=O)N(C)c3ccc([C@H]4CCC[C@@H](C(=O)NC56CC(CC(F)(F)F)(C5)C6)[C@@H]4C(=O)O)cc3)ccc2n1C [Example 174, (1R,2R,6S)-2-((3-(2,2,2-trifluoroethyl)bicyclo[1.1.1]pentan-1-yl)carbamoyl)-6-(4-((N,1,2-trimethyl-1H-benzo[d]imidazole)-5-sulfonamido)phenyl)cyclohexane-1-carboxylic acid] | 10000 |
| 158 | Cc1nc2cc(S(=O)(=O)N(C)c3ccc([C@@H]4C[C@H](OC(C)C)C[C@H](C(=O)Nc5ccc(C(F)(F)F)cc5F)[C@H]4C(=O)O)cc3)ccc2n1C (stereo in doubt) [Example 312, rel-(1R,2R,4R,6S)-2-((2-fluoro-4-(trifluoromethyl)phenyl)carbamoyl)-4-isopropoxy-6-(4-((N,1,2-trimethyl-1H-benzo[d]imidazole)-5-sulfonamido)phenyl)cyclohexane-1-carboxylic acid] | 12600 |
| 5.01 | Cc1nc2cc(S(=O)(=O)N(C)c3ccc([C@H]4CCC[C@@H](C(=O)Nc5ccc(C(F)(F)F)cc5F)[C@@H]4C(=O)O)cc3C#CC(C)(C)O)ccc2n1C [Example 167, (1R,2R,6S)-2-((2-fluoro-4-(trifluoromethyl)phenyl)carbamoyl)-6-(3-(3-hydroxy-3-methylbut-1-yn-1-yl)-4-((N,1,2-trimethyl-1H-benzo[d]imidazole)-5-sulfonamido)phenyl)cyclohexane-1-carboxylic acid] | 20000 |
| 3980 | Cc1nc2cc(S(=O)(=O)N(C)c3ccc([C@@H]4C[C@@H](N5CCC(F)(F)C5)C[C@H](C(=O)Nc5ccc(C(F)(F)F)cc5F)[C@H]4C(=O)O)cc3)ccc2n1C (stereo in doubt) [Example 303, rel-(1R,2R,4S,6S)-4-(3,3-difluoropyrrolidin-1-yl)-2-((2-fluoro-4-(trifluoromethyl)phenyl)carbamoyl)-6-(4-((N,1,2-trimethyl-1H-benzo[d]imidazole)-5-sulfonamido)phenyl)cyclohexane-1-carboxylic acid] | 25100 |
| 126 | Cc1nc2cc(S(=O)(=O)N(C)c3ccc([C@@H]4C[C@H](OCC5(C)COC5)C[C@H](C(=O)Nc5ccc(C(F)(F)F)cc5F)[C@H]4C(=O)O)cc3)ccc2n1C (stereo in doubt) [Example 366, rel-(1R,2R,4R,6S)-2-((2-fluoro-4-(trifluoromethyl)phenyl)carbamoyl)-4-((3-methyloxetan-3-yl)methoxy)-6-(4-((N,1,2-trimethyl-1H-benzo[d]imidazole)-5-sulfonamido)phenyl)cyclohexane-1-carboxylic acid] | 15800 |
| 2.51 | Cc1nc2cc(S(=O)(=O)N(C)c3ccc([C@H]4CCC[C@@H](C(=O)N[C@H]5CC[C@H](C(C)(C)F)CC5)[C@@H]4C(=O)O)cc3)ccc2n1C [Example 182, (1R,2R,6S)-2-(((1r,4R)-4-(2-fluoropropan-2-yl)cyclohexyl)carbamoyl)-6-(4-((N, 1,2-trimethyl-1H-benzo[d]imidazole)-5-sulfonamido)phenyl)cyclohexane-1-carboxylic acid] | 1580 |
| 2.51 | Cc1nc2cc(S(=O)(=O)N(C)c3ccc([C@H]4CCC[C@@H](C(=O)N[C@H]5CC[C@H](C6CCC6)CC5)[C@@H]4C(=O)O)cc3)ccc2n1C [Example 188, (1R,2R,6S)-2-(((1r,4R)-4-cyclobutylcyclohexyl)carbamoyl)-6-(4-((N,1,2-trimethyl-1H-benzo[d]imidazole)-5-sulfonamido)phenyl)cyclohexane-1-carboxylic acid] | 2510 |
| 631 | Cc1nc2cc(S(=O)(=O)N(C)c3ccc([C@@H]4C[C@H](OC(F)F)C[C@H](C(=O)Nc5ccc(C(F)(F)F)cc5F)[C@H]4C(=O)O)cc3)ccc2n1C (stereo in doubt) [Example 283, rel-(1R,2R,4R,6S)-4-(difluoromethoxy)-2-((2-fluoro-4-(trifluoromethyl)phenyl)carbamoyl)-6-(4-((N,1,2-trimethyl-1H-benzo[d]imidazole)-5-sulfonamido)phenyl)cyclohexane-1-carboxylic acid] | 20000 |
| 79.4 | Cc1nc2cc(S(=O)(=O)N(C)c3ccc([C@H]4CCC[C@@H](CO[C@H]5CC[C@H](C(F)(F)F)CC5)[C@@H]4C(=O)O)cc3)ccc2n1C [Example 215, (1R,2R,6S)-2-((((1r,4R)-4-(trifluoromethyl)cyclohexyl)oxy)methyl)-6-(4-((N,1,2-trimethyl-1H-benzo[d]imidazole)-5-sulfonamido)phenyl)cyclohexane-1-carboxylic acid] | 20000 |
| 1.58 | Cc1nc2cc(S(=O)(=O)N(C)c3ccc([C@H]4C[C@@H](OCC5COC5)C[C@@H](C(=O)Nc5ccc(C(F)(F)F)cc5F)[C@@H]4C(=O)O)cc3)ccc2n1C (relative stereo) [Example 282, rel-(1R,2R,4R,6S)-2-((2-fluoro-4-(trifluoromethyl)phenyl)carbamoyl)-4-(oxetan-3-ylmethoxy)-6-(4-((N,1,2-trimethyl-1H-benzo[d]imidazole)-5-sulfonamido)phenyl)cyclohexane-1-carboxylic acid] | 63.1 |
| 25.1 | Cc1nc2cc(S(=O)(=O)N(C)c3cnc([C@@H]4CCC[C@H](C(=O)Nc5ccc(C(F)(F)F)cc5F)[C@H]4C(=O)O)cn3)ccc2n1C (relative stereo) [Example 165, rel-(1R,2R,6S)-2-((2-fluoro-4-(trifluoromethyl)phenyl)carbamoyl)-6-(5-((N,1,2-trimethyl-1H-benzo[d]imidazole)-5-sulfonamido)pyrazin-2-yl)cyclohexane-1-carboxylic acid] | 25100 |
| 251 | COC12CC(CO[C@@H]3C[C@H](C(=O)Nc4ccc(C(F)(F)F)cc4F)[C@@H](C(=O)O)[C@H](c4ccc(N(C)S(=O)(=O)c5ccc6c(c5)nc(C)n6C)cc4)C3)(C1)C2 (relative stereo) [Example 331, rel-(1R,2R,4R,6S)-2-((2-fluoro-4-(trifluoromethyl)phenyl)carbamoyl)-4-((3-methoxybicyclo[1.1.1]pentan-1-yl)methoxy)-6-(4-((N,1,2-trimethyl-1H-benzo[d]imidazole)-5-sulfonamido)phenyl)cyclohexane-1-carboxylic acid] | 20000 |
